{"source": "paper PMC6359543", "about": "“Efficacy of Azatyrosine-Phenylbutyric Hydroxamides, a Histone Deacetylase Inhibitor, on Chemotherapy-Induced Gastrointestinal Mucositis” (International Journal of Molecular Sciences, 2019)", "key": {"IEC-6 cells [1]": {"test_system": "IEC-6 cells", "experiment": "LPS-induced inflammatory protein expression in IEC-6 cells (Western blot)", "format": "cell-based, Rat", "conditions": "LPS 500 ng/mL 8 h, AzP 1–20 μM", "experimental": "Figure 5 Hierarchical clustering and KEGG analyses of gene profiles of the AzP-manipulated IEC-6 cells. (A) Two independent experiments were performed, samples were named C1, C2 as control group (1% dimethyl sulfoxide (DMSO)); LPS1, LPS2 as lipopolysaccharide (LPS) 500 ng/mL group; LPS + AzP1, LPS + AzP2 as LPS 500 ng/mL and AzP 20 μM group. Heat maps showing the clustering analysis of the IEC-6 cells with different treatments (1% DMSO, LPS 500 ng/mL and/or AzP 20 μM) indicates up-regulation (red), down-regulation (green), and mean gene expression (black). […] IEC-6 cells were treated with LPS 500 ng/mL for 8 h and/or AzP 1–20 μM, Western blot performed and immunoblotted with several inflammatory protein expressions including MMP-9 (C), IL-1β (D), iNOS (E), and IL-6 (F). Density was measured and calculated. ### p < 0.001 as compared with the control, ## p < 0.01 as compared with the control, # p < 0.05 as compared with the control, * p < 0.05 as compared with the LPS-treated group, ** p < 0.01 as compared with the LPS-treated group and *** p < 0.001 as compared with LPS-treated group.\n(§1) IEC-6 cells were incubated in different AzP concentrations with/without LPS stimulation for 24 h. The homogenate from cells or tissues was then centrifuged at 14,000× g for 10 min at 4 °C and the supernatant was collected. Protein separation was performed using 10% reducing SDS-PAGE, electrotransferred onto polyvinylidene difluoride (PVDF), and immunoblotted with antibodies against inflammatory proteins as well as β-actin as control. Densitometry was performed using BioLight software V2000.01 (Uhldingen-Mühlhofen, Germany). The optical density of specific protein was normalized to an internal control and expressed as a ratio to control."}, "HDAC1": {"target": "T1, HDAC1 (Homo sapiens, UniProt Q13547)", "T1 construct": "purchased Enzo Life Sciences, Farmingdale, NY, USA", "T1 sequence (Q13547 whole entry, species assumed)": "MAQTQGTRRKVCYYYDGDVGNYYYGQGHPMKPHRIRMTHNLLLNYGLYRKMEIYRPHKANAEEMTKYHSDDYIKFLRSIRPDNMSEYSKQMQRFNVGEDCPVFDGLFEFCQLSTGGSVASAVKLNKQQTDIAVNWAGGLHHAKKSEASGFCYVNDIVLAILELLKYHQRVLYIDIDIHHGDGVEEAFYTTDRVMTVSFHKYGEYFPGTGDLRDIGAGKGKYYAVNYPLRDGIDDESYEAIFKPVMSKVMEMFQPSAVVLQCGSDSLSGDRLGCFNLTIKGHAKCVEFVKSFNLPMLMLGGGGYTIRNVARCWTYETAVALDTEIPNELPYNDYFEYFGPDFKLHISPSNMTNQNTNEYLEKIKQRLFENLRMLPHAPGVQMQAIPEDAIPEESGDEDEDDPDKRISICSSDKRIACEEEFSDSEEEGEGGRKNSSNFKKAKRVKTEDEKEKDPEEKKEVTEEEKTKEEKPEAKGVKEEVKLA", "experiment": "HDAC fluorometric activity assay, HDAC1", "format": "biochemical", "experimental": "(§2) Pan HDAC enzyme (all the known class I HDACs-HDAC1, HDAC2, HDAC3, HDAC8 and class II HDACs 4-7, 9 and 10), HDAC subtype 1, 3 and 4 activity were determined by using the HDAC fluorometric cellular activity assay (Enzo Life Sciences, Farmingdale, NY, USA) according to the manufacturer’s protocol. […] Percent activity for each of the test compounds is calculated as follows:\n(§3) Activity = {(Sc − B)/(S° − B)} × 100. […] IC50 was then calculated and represented as mean ± SD."}, "IEC-6 cells [2]": {"test_system": "IEC-6 cells", "experiment": "LPS-induced MAPK/Akt phosphorylation in IEC-6 cells (Western blot)", "format": "cell-based, Rat", "experimental": "Figure 6 Western blotting of IEC-6 cells treated with LPS and/or AzP. (A) IEC-6 cells (1 × 10^6 cells/mL) were dispensed on 6 cm dishes and (A) treated with LPS (500 ng/mL) for 10, 20, 30, 60, and 90 min. Data expressed as means ± SD from 3 independent experiments. * p < 0.05 as compared with the resting. (B) Treatment with LPS (500 ng/mL) for 10 min as indicated. Cells were treated with the indicated concentrations of AzP (5, 10, and 20 μM) or vehicle for 30 min before treatment with LPS. Cell lysates were collected for Western blot targeting p-ERK phosphorylation (Thr202/Tyr204, B), MEK phosphorylation ([…], C), and Akt phosphorylation (Ser473, D). Data expressed as means ± SD from 3 independent experiments. ### p < 0.001 as compared with the resting, * p < 0.05, ** p < 0.01 and *** p < 0.001 as compared with the vehicle.\nas §1"}, "male ICR mice": {"test_system": "male ICR mice", "experiment": "Micronucleus test", "conditions": "mouse, in vivo", "experimental": "Male ICR mice (n = 5) were administered AzP orally by gavage, at doses of 5, 50, and 500 mg/kg body weight. […] At 24, 48, and 72 h after dosing, 2-μL blood samples were collected from the tail vein onto a slide stained with acridine orange (40 μg/mL). The ratio (%) of polychromatic erythrocytes (PCEs) to total erythrocytes was determined using fluorescence microscopy. In addition, the frequency of micronucleated polychromatic erythrocytes (MNPCEs; ‰) was counted to a total of 1000 erythrocytes or PCEs per animal."}, "Pan HDAC enzyme": {"target": "Pan HDAC enzyme", "experiment": "HDAC fluorometric activity assay, pan HDAC", "format": "biochemical", "experimental": "as §2, §3"}, "[3]": {"test_system": "Salmonella typhimurium TA1535", "format": "cell-based", "description": "(§4) Five strains of Salmonella typhimurium, TA98, TA102, TA100, TA1537, and TA1535, were obtained from Moltox (Boone, NC, USA). Mutagenicity was evaluated by the incorporation method in the presence or absence of S9 metabolic activation [29]. A volume of 100 µL of each test bacterial culture (10^9 cells/mL), 2 mL soft agar (0.6% agar, 0.5% NaCl, 5 mM histidine, and 50 mM biotin, pH 7.4, 40–50 °C), 0.5 mL S9 mixture (if necessary), and AzP were mixed well in a test tube. […] The revertant colonies were counted, and a positive mutagenic response was identified when (i) the number of revertants was at least double the spontaneous yield; (ii) a statistical significance (p ≤ 0.05) was found; and (iii) a reproducible positive dose response was present."}, "[4]": {"test_system": "Salmonella typhimurium TA98", "experiment": "Salmonella/microsome reversion assay (Ames test), TA98", "format": "cell-based", "description": "as §4"}, "HDAC4": {"target": "T2, HDAC4 (Homo sapiens, UniProt P56524)", "T2 construct": "purchased Enzo Life Sciences, Farmingdale, NY, USA", "T2 sequence (P56524 whole entry, species assumed)": "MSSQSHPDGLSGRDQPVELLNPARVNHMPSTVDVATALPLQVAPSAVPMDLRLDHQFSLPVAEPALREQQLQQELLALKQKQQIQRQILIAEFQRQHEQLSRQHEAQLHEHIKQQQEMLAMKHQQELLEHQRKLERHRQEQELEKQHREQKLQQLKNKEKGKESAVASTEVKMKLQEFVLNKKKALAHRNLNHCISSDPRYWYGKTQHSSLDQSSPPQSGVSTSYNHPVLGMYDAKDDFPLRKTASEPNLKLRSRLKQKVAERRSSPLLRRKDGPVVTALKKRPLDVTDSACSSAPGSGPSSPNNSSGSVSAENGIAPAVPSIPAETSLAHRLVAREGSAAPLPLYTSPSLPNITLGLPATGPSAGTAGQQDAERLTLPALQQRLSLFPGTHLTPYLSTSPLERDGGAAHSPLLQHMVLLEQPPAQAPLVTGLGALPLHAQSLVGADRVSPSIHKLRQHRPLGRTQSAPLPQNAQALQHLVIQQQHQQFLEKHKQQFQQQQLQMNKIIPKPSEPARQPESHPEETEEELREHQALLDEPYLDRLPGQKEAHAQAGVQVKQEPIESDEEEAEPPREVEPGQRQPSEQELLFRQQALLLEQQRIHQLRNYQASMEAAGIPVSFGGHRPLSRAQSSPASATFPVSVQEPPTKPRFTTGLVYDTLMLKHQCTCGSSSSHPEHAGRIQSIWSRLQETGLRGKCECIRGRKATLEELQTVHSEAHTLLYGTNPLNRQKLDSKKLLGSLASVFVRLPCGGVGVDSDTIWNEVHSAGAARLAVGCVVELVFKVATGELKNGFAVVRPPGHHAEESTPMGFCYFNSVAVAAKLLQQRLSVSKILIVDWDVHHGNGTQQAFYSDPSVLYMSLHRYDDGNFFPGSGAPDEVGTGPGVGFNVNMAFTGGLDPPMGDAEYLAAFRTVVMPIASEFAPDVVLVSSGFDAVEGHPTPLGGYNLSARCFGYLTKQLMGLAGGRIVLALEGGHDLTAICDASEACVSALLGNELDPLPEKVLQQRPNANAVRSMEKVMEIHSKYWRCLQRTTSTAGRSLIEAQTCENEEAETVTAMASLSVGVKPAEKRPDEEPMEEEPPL", "experiment": "HDAC fluorometric activity assay, HDAC4", "format": "biochemical", "experimental": "as §2, §3"}}, "note": "Read-outs that look alike come from different tables or passages of the source."}
{"smiles": "CC(C)(C)OC(=O)NC(Cc1ccc(OCc2ccccc2)cn1)C(=O)Nc1ccc(CCCC(=O)NO)cc1", "note": "(centres unmarked) [AzP, Azatyrosine-phenylbutyric hydroxamides]", "values": [{"measurement": "LPS-induced IL-1β protein expression", "setting": "IEC-6 cells [1]", "result": "concentration-dependently inhibited"}, {"measurement": "LPS-induced IL-6 protein expression", "setting": "IEC-6 cells [1]", "result": "concentration-dependently inhibited"}, {"measurement": "LPS-induced MMP9 protein expression", "setting": "IEC-6 cells [1]", "result": "concentration-dependently inhibited"}, {"measurement": "protein expression of iNOS", "setting": "IEC-6 cells [1]", "result": "unaffected"}, {"measurement": "IC50", "setting": "HDAC1", "result": "3440 ± 680", "unit": "nM"}, {"measurement": "LPS-induced ERK activation (phosphorylation)", "setting": "IEC-6 cells [2]; LPS 500 ng/mL 10 min, AzP 5–20 μM", "result": "dose-dependently reverse"}, {"measurement": "LPS-induced Akt phosphorylation", "setting": "IEC-6 cells [2]; LPS 10 min, AzP 5–20 μM", "result": "concentration-dependently reversed"}, {"measurement": "LPS-induced MEK1/2 phosphorylation", "setting": "IEC-6 cells [2]; LPS 10 min, AzP 5–20 μM", "result": "concentration-dependently reversed"}, {"measurement": "JNK phosphorylation", "setting": "IEC-6 cells [2]; LPS, data not shown", "result": "unaffected"}, {"measurement": "p38 phosphorylation", "setting": "IEC-6 cells [2]; LPS, data not shown", "result": "unaffected"}, {"measurement": "IKK phosphorylation", "setting": "IEC-6 cells [2]; Western blot", "result": "unaffected"}, {"measurement": "p65 phosphorylation", "setting": "IEC-6 cells [2]; Western blot", "result": "unaffected"}, {"measurement": "Micronucleus Test result", "setting": "male ICR mice", "result": "Negative"}, {"measurement": "IC50", "setting": "Pan HDAC enzyme", "result": "1650 ± 103", "unit": "nM"}, {"measurement": "structure of intestinal mucosa, villus length and crypt depth (H&E)", "setting": "C57BL/6 mice; 250 mg/kg/day group, days 3 and 5", "result": "restored"}, {"measurement": "Relative mean body weight (day 0 = 100%)", "setting": "C57BL/6 mice; day 5, AzP 50 mg/kg gavage days −1, 0, 1 + cisplatin 11 mg/kg", "result": "78.7 ± 4.7", "unit": "%"}, {"measurement": "Relative mean body weight (day 0 = 100%)", "setting": "C57BL/6 mice; day 5, AzP 100 mg/kg gavage days −1, 0, 1 + cisplatin 11 mg/kg", "result": "80.5 ± 3.4", "unit": "%"}, {"measurement": "Relative mean body weight (day 0 = 100%)", "setting": "C57BL/6 mice; day 5, AzP 250 mg/kg gavage days −1, 0, 1 + cisplatin 11 mg/kg", "result": "89.1 ± 8.1", "unit": "%"}, {"measurement": "MCP-1 expression in intestine (IHC)", "setting": "C57BL/6 mice; day 5, cisplatin 11 mg/kg", "result": "dose-dependently reduced"}, {"measurement": "Serum IL-6 level (ELISA)", "setting": "C57BL/6 mice; day 5, cisplatin 11 mg/kg", "result": "inhibit cisplatin-induced IL-6 production in a dose-dependent manner"}, {"measurement": "TNF-α expression in intestine (IHC)", "setting": "C57BL/6 mice; day 5, cisplatin 11 mg/kg", "result": "dose-dependently reduced"}, {"measurement": "Ames test result, TA1535 (-S9)", "setting": "[3]; -S9", "result": "Negative"}, {"measurement": "Revertant colonies per plate (-S9) TA1535", "setting": "[3]; AzP 0.0195 mg/plate", "result": "52±1.2"}, {"measurement": "Revertant colonies per plate (+S9) TA1535", "setting": "[3]; AzP 0.0391 mg/plate", "result": "46.5±3.3"}, {"measurement": "Revertant colonies per plate (-S9) TA1535", "setting": "[3]; AzP 0.0391 mg/plate", "result": "47.3±9"}, {"measurement": "Revertant colonies per plate (+S9) TA1535", "setting": "[3]; AzP 0.0781 mg/plate", "result": "50.5±4.9"}, {"measurement": "Revertant colonies per plate (-S9) TA1535", "setting": "[3]; AzP 0.0781 mg/plate", "result": "59±0.6"}, {"measurement": "Revertant colonies per plate (+S9) TA1535", "setting": "[3]; AzP 0.156 mg/plate", "result": "52.5±5.2"}, {"measurement": "Revertant colonies per plate (-S9) TA1535", "setting": "[3]; AzP 0.156 mg/plate", "result": "61.3±2.2"}, {"measurement": "Revertant colonies per plate (+S9) TA1535", "setting": "[3]; AzP 0.3125 mg/plate", "result": "51.7±3.6"}, {"measurement": "Revertant colonies per plate (-S9) TA1535", "setting": "[3]; AzP 0.3125 mg/plate", "result": "54.6±7.2"}, {"measurement": "Revertant colonies per plate (+S9) TA1535", "setting": "[3]; AzP 0.625 mg/plate", "result": "59.2±3.3"}, {"measurement": "Revertant colonies per plate (-S9) TA1535", "setting": "[3]; AzP 0.625 mg/plate", "result": "52.2±13.4"}, {"measurement": "Revertant colonies per plate (+S9) TA1535", "setting": "[3]; AzP 1.25 mg/plate", "result": "67±3.2"}, {"measurement": "Revertant colonies per plate (+S9) TA1535", "setting": "[3]; AzP 2.5 mg/plate", "result": "58±2.1"}, {"measurement": "Ames test result, TA1535 (|S9)", "setting": "[3]; second S9 group", "result": "Negative"}, {"measurement": "Ames test result, TA98 (-S9)", "setting": "[4]; -S9", "result": "Negative"}, {"measurement": "Revertant colonies per plate (+S9) TA98", "setting": "[4]; AzP 0.00245 mg/plate", "result": "59.7±3.8"}, {"measurement": "Revertant colonies per plate (-S9) TA98", "setting": "[4]; AzP 0.00245 mg/plate", "result": "42±4.6"}, {"measurement": "Revertant colonies per plate (+S9) TA98", "setting": "[4]; AzP 0.0049 mg/plate", "result": "58.3±4.7"}, {"measurement": "Revertant colonies per plate (-S9) TA98", "setting": "[4]; AzP 0.0049 mg/plate", "result": "29±5.7"}, {"measurement": "Revertant colonies per plate (+S9) TA98", "setting": "[4]; AzP 0.0098 mg/plate", "result": "56.3±3.4"}, {"measurement": "Revertant colonies per plate (-S9) TA98", "setting": "[4]; AzP 0.0098 mg/plate", "result": "24±5.4"}, {"measurement": "Revertant colonies per plate (+S9) TA98", "setting": "[4]; AzP 0.0195 mg/plate", "result": "59.7±0.7"}, {"measurement": "Revertant colonies per plate (-S9) TA98", "setting": "[4]; AzP 0.0195 mg/plate", "result": "33.7±3"}, {"measurement": "Revertant colonies per plate (+S9) TA98", "setting": "[4]; AzP 0.0391 mg/plate", "result": "62.7±2.3"}, {"measurement": "Revertant colonies per plate (-S9) TA98", "setting": "[4]; AzP 0.0391 mg/plate", "result": "33.7±2.8"}, {"measurement": "Revertant colonies per plate (+S9) TA98", "setting": "[4]; AzP 0.0781 mg/plate", "result": "56.3±2.2"}, {"measurement": "Revertant colonies per plate (+S9) TA98", "setting": "[4]; AzP 0.156 mg/plate", "result": "61±1.2"}, {"measurement": "Revertant colonies per plate (+S9) TA98", "setting": "[4]; AzP 0.3125 mg/plate", "result": "69.7±5.8"}, {"measurement": "Revertant colonies per plate (+S9) TA98", "setting": "[4]; AzP 0.625 mg/plate", "result": "64±2.9"}, {"measurement": "Ames test result, TA98 (|S9)", "setting": "[4]; second S9 group", "result": "Negative"}, {"measurement": "IC50", "setting": "HDAC4", "result": "1970 ± 110", "unit": "nM"}]}
